Measured values published in US10696686B2, “Herbicidally active (alkynyl-phenyl)-substituted cyclic dione compounds and derivatives thereof” (Syngenta Limited, priority 2013, dated 2020).

system: Abutilon theophrasti (ABUTH); experiment: Biological Example 1A glasshouse assay, post-emergence application; assay type: in vivo; settings: 312 h, 30 g/ha, 13 days after application, read-out: Percentage phytotoxicity ABUTH
Experimental: (§1) Seeds of a variety of test plant species were sown in standard soil ** in pots. After cultivation for one day (pre-emergence) or after 8 days cultivation (post-emergence) under controlled conditions in a glasshouse (at 24/16° C., day/night; 14 hours light; 65% humidity), the plants were sprayed with an aqueous spray solution derived from the formulation of the technical active ingredient (the test herbicide) in acetone/water (50:50) solution containing 0.5% Tween 20 (polyoxyethylene sorbitan monolaurate, CAS Reg. No. 9005-64-5). The test plants were then grown on under controlled conditions in a glasshouse (at 24/16° C., day/night; 14 hours light; 65% humidity) and watered twice daily. 13 Days after application of the test herbicide, for pre- and post-emergence, the test was evaluated visually for percentage phytotoxicity to each plant (where 100%=total damage to plant; 0%=no damage to plant). Generally, each test herbicide is only tested on 1 plant per plant species for each application rate tested and for each application timing. ** The “standard soil” in Biological Example 1 is usually a “sand” or “sandy loam” type of soil.
(§2) Dicotyledonous weeds: ABUTH=Abutilon theophrasti; AMARE=Amaranthus retroflexus. Grassy monocotyledonous weeds: SETFA=Setaria faberi; ALOMY=Alopecurus myosuroides; ECHCG=Echinochloa crus-galli; ZEAMX=Zea mays (corn, maize, e.g. volunteer corn). For Compound A16, the grassy monocotyledonous weed LOLPE (Lolium perenne) was used in the test insterad of ALOMY.

Structure (SMILES)	pest or weed control at 30 g/ha [%]
CC#Cc1cc(F)c(C2C(=O)CCC2=O)c(OC)c1 [Compound A9]	0
CC#Cc1cc(F)c(C2C(=O)C(C)(C)OC(C)(C)C2=O)c(OC)c1 [Compound A10]	0

same assay, conditions: 312 h, 250 g/ha, 13 days after application, read-out: Percentage phytotoxicity ABUTH

Structure (SMILES)	pest or weed control at 250 g/ha [%]
CC#Cc1cc(F)c(C2C(=O)CCC2=O)c(OC)c1 [Compound A9]	30
CC#Cc1cc(F)c(C2C(=O)C(C)(C)OC(C)(C)C2=O)c(OC)c1 [Compound A10]	0

system: Alopecurus myosuroides (ALOMY); experiment: as above; assay type: in vivo; settings: 30 g/ha, 13 days after application
Experimental: as §1, §2

Structure (SMILES)	Percentage phytotoxicity ALOMY [%]
CC#Cc1cc(F)c(C2C(=O)CCC2=O)c(OC)c1 [Compound A9]	0
CC#Cc1cc(F)c(C2C(=O)C(C)(C)OC(C)(C)C2=O)c(OC)c1 [Compound A10]	40

same assay, conditions: 250 g/ha, 13 days after application

Structure (SMILES)	Percentage phytotoxicity ALOMY [%]
CC#Cc1cc(F)c(C2C(=O)CCC2=O)c(OC)c1 [Compound A9]	20
CC#Cc1cc(F)c(C2C(=O)C(C)(C)OC(C)(C)C2=O)c(OC)c1 [Compound A10]	80

system: Echinochloa crus-galli (ECHCG); experiment: as above; assay type: in vivo; settings: 312 h, 30 g/ha, 13 days after application, read-out: Percentage phytotoxicity ECHCG
Experimental: as §1, §2

Structure (SMILES)	pest or weed control at 30 g/ha [%]
CC#Cc1cc(F)c(C2C(=O)CCC2=O)c(OC)c1 [Compound A9]	60
CC#Cc1cc(F)c(C2C(=O)C(C)(C)OC(C)(C)C2=O)c(OC)c1 [Compound A10]	50

same assay, conditions: 312 h, 250 g/ha, 13 days after application, read-out: Percentage phytotoxicity ECHCG

Structure (SMILES)	pest or weed control at 250 g/ha [%]
CC#Cc1cc(F)c(C2C(=O)CCC2=O)c(OC)c1 [Compound A9]	70
CC#Cc1cc(F)c(C2C(=O)C(C)(C)OC(C)(C)C2=O)c(OC)c1 [Compound A10]	80

system: Amaranthus retroflexus (AMARE); experiment: as above; assay type: in vivo; settings: 312 h, 30 g/ha, 13 days after application, read-out: Percentage phytotoxicity AMARE
Experimental: as §1, §2

Structure (SMILES)	pest or weed control at 30 g/ha [%]
CC#Cc1cc(F)c(C2C(=O)CCC2=O)c(OC)c1 [Compound A9]	0
CC#Cc1cc(F)c(C2C(=O)C(C)(C)OC(C)(C)C2=O)c(OC)c1 [Compound A10]	0

same assay, conditions: 312 h, 250 g/ha, 13 days after application, read-out: Percentage phytotoxicity AMARE

Structure (SMILES)	pest or weed control at 250 g/ha [%]
CC#Cc1cc(F)c(C2C(=O)CCC2=O)c(OC)c1 [Compound A9]	20
CC#Cc1cc(F)c(C2C(=O)C(C)(C)OC(C)(C)C2=O)c(OC)c1 [Compound A10]	0

system: Setaria faberi (SETFA); experiment: as above; assay type: in vivo; settings: Setaria faberi, 312 h; post-emergence, 30 g/ha, 13 days after application; read-out: Percentage phytotoxicity SETFA
Experimental: as §1, §2

Structure (SMILES)	pest or weed control at 30 g/ha [%]
CC#Cc1cc(F)c(C2C(=O)CCC2=O)c(OC)c1 [Compound A9]	70
CC#Cc1cc(F)c(C2C(=O)C(C)(C)OC(C)(C)C2=O)c(OC)c1 [Compound A10]	70

same assay, conditions: Setaria faberi, 312 h; post-emergence, 250 g/ha, 13 days after application; read-out: Percentage phytotoxicity SETFA

Structure (SMILES)	pest or weed control at 250 g/ha [%]
CC#Cc1cc(F)c(C2C(=O)CCC2=O)c(OC)c1 [Compound A9]	80
CC#Cc1cc(F)c(C2C(=O)C(C)(C)OC(C)(C)C2=O)c(OC)c1 [Compound A10]	90

system: Zea mays (ZEAMX, corn, maize, e.g. volunteer corn); experiment: as above; assay type: in vivo; settings: Zea mays, 312 h; post-emergence, 30 g/ha, 13 days after application; read-out: Percentage phytotoxicity ZEAMX
Experimental: as §1, §2

Structure (SMILES)	pest or weed control at 30 g/ha [%]
CC#Cc1cc(F)c(C2C(=O)CCC2=O)c(OC)c1 [Compound A9]	70
CC#Cc1cc(F)c(C2C(=O)C(C)(C)OC(C)(C)C2=O)c(OC)c1 [Compound A10]	40

same assay, conditions: Zea mays, 312 h; post-emergence, 250 g/ha, 13 days after application; read-out: Percentage phytotoxicity ZEAMX

Structure (SMILES)	pest or weed control at 250 g/ha [%]
CC#Cc1cc(F)c(C2C(=O)CCC2=O)c(OC)c1 [Compound A9]	90
CC#Cc1cc(F)c(C2C(=O)C(C)(C)OC(C)(C)C2=O)c(OC)c1 [Compound A10]	90

system: grassy (in particular warm climate grassy) monocotyledonous weeds; experiment: Post-emergence herbicidal activity, summary statements on Biological Examples 1 to 3; assay type: in vivo; settings: applied at about 250 g/ha post-emergence; Biological Examples 1 and 2
Experimental: as §1
Seeds of a variety of monocotyledonous and dicotyledonous test plants are sown in standard soil in pots. The plants are cultivated for one day (for pre-emergence) or for about 12 days (range=10-13 days) (for post-emergence) under controlled conditions in a glasshouse (warm climate species at 24/18° C., cool climate species at 20/16° C., both at day/night; 16 hours light; 65% humidity). An “instant formulation”, known as the “IF50”, containing 50 g/litre (i.e. 5% w/v) of the “technical” (i.e. unformulated) active ingredient is prepared by dissolving the active ingredient in a mixture of organic solvents and emulsifier, details of which are provided in the Table below. […]
The test plants are then grown on, in a glasshouse (greenhouse) under controlled conditions (at either 24/18° C. or 20/16° C. (day/night) as mentioned above; 16 hours light; 65% humidity) and are watered twice daily. Either 14 or 15 days after application of the herbicide (14 or 15 DAA) (for post-emergence), or 20 days after application of the herbicide (20 DAA) (for pre-emergence), the test plants are evaluated visually, and an assessed percentage phytotoxicity score is given for each herbicidal application on each plant species (where 100%=total damage to plant; 0%=no damage to plant). […]

Structure (SMILES)	post-emergent herbicidal potency against grassy monocotyledonous weeds (in words)
CC#Cc1cc(F)c(C2C(=O)CCC2=O)c(OC)c1 [Compound A9]	potent post-emergent herbicides
CC#Cc1cc(F)c(C2C(=O)C(C)(C)OC(C)(C)C2=O)c(OC)c1 [Compound A10]	potent post-emergent herbicides

system: Abutilon theophrasti (ABUTH); experiment: Biological Example 1B glasshouse assay, pre-emergence application; assay type: in vivo; settings: 250 g/ha, 13 days after application
Experimental: as §1, §2

Structure (SMILES)	Percentage phytotoxicity ABUTH [%]
CC#Cc1cc(F)c(C2C(=O)CCC2=O)c(OC)c1 [Compound A9]	0
CC#Cc1cc(F)c(C2C(=O)C(C)(C)OC(C)(C)C2=O)c(OC)c1 [Compound A10]	0

system: Alopecurus myosuroides (ALOMY); experiment: as above; assay type: in vivo; settings: 250 g/ha, 13 days after application
Experimental: as §1, §2

Structure (SMILES)	Percentage phytotoxicity ALOMY [%]
CC#Cc1cc(F)c(C2C(=O)CCC2=O)c(OC)c1 [Compound A9]	30
CC#Cc1cc(F)c(C2C(=O)C(C)(C)OC(C)(C)C2=O)c(OC)c1 [Compound A10]	50

system: Echinochloa crus-galli (ECHCG); experiment: as above; assay type: in vivo; settings: 250 g/ha, 13 days after application
Experimental: as §1, §2

Structure (SMILES)	Percentage phytotoxicity ECHCG [%]
CC#Cc1cc(F)c(C2C(=O)CCC2=O)c(OC)c1 [Compound A9]	80
CC#Cc1cc(F)c(C2C(=O)C(C)(C)OC(C)(C)C2=O)c(OC)c1 [Compound A10]	90

system: Amaranthus retroflexus (AMARE); experiment: as above; assay type: in vivo; settings: 250 g/ha, 13 days after application
Experimental: as §1, §2

Structure (SMILES)	Percentage phytotoxicity AMARE [%]
CC#Cc1cc(F)c(C2C(=O)CCC2=O)c(OC)c1 [Compound A9]	20
CC#Cc1cc(F)c(C2C(=O)C(C)(C)OC(C)(C)C2=O)c(OC)c1 [Compound A10]	0

system: Setaria faberi (SETFA); experiment: as above; assay type: in vivo; settings: 250 g/ha, 13 days after application
Experimental: as §1, §2

Structure (SMILES)	Percentage phytotoxicity SETFA [%]
CC#Cc1cc(F)c(C2C(=O)CCC2=O)c(OC)c1 [Compound A9]	80
CC#Cc1cc(F)c(C2C(=O)C(C)(C)OC(C)(C)C2=O)c(OC)c1 [Compound A10]	70

system: Zea mays (ZEAMX, corn, maize, e.g. volunteer corn); experiment: as above; assay type: in vivo; settings: 250 g/ha, 13 days after application
Experimental: as §1, §2

Structure (SMILES)	Percentage phytotoxicity ZEAMX [%]
CC#Cc1cc(F)c(C2C(=O)CCC2=O)c(OC)c1 [Compound A9]	80
CC#Cc1cc(F)c(C2C(=O)C(C)(C)OC(C)(C)C2=O)c(OC)c1 [Compound A10]	50
